Entries after “also recorded” stand apart in the source; their conditions may differ. Structures can show the parent of a compound that is named as a salt.
What was measured:
βTC6 cells = assay: Insulin secretion by βTC6 cells, high range insulin Sandwich ELISA kit; format: cell-based; settings: for insulin secretion compared to the basal control: absence of glucose; for insulin secretion compared to basal insulin secretion: presence of 2.8 mM glucose, 10^−15, 10^−12, and 10^−9 M
Method: FIG. 2A is a bar graph showing the in vitro effects on insulin secretion of compound 2a at concentrations of 10^−15, 10^−12, and 10^−9 M, compared to control, in both the absence and presence of 2.8 mM glucose. Results are means of triplicates±SEM; * P<0.05, ** P<0.01, *** P<0.001, from relative basal control.
The secretion of insulin by βTC6 cells was measured using the high range insulin Sandwich ELISA kit. The 2.8 mM glucose gave a mild insulin response around 3000 pmol/l and was used in testing the effect of compounds 2a-d. […]

[1] = system: STZ-induced diabetic rats; assay: Fasting blood glucose (FBG) in Streptozotocin (STZ)-induced diabetic rats after oral administration; format: in vivo
Method: (§1) FIG. 1A is a bar graph showing in vivo anti-hyperglycemic effect on fasting blood glucose levels over time, ranging from 0 minute to 480 minutes, and at 1440 minutes, in STZ-induced diabetic rats, comparing a dose of 1.0 μM/kg compound 2a with control. Results are means±SEM; n=6 rats; * P<0.05, ** P<0.01, vs. STZ control.
as §1, with “1B” for “1A”, “2b” for “2a”
as §1, with “FIG. 1C” for “FIG. 1A”, “comparing an oral” for “comparing a”, “compound 2c” for “compound 2a”
as §1, with “FIG. 1D is a” for “FIG. 1A is a”, “from 0 minutes to 480” for “from 0 minute to 480”, “μM/kg compound 2d with control.” for “μM/kg compound 2a with control.”
These symptoms indicated the development of diabetes characterized by chronic and persistently elevated plasma glucose levels.
Compound 2a was orally administrated to the treated groups of diabetic rats at a dose of 1.0 μM/kg. Glucose levels in their blood were followed over 8.0 hours. […] Compounds 2b-d were orally administrated to the treated groups of diabetic rats at a dose of 1.0 μM/kg. Blood glucose levels were monitored at 0, 30 minutes, 60 minutes, 2 hours, 4 hours, 6 hours, 8 hours, and then again at 24 hours.

[2] = 10^−15, 10^−12, and 10^−9 M tested

SMILES	melting point [°C]	insulin secretion compared to the basal control (βTC6 cells; [2])	insulin secretion compared to basal insulin secretion (βTC6 cells)	other results
N=C(N)NC1CCCCCC1 [compound 10, 1-Cycloheptylguanidine hydrochloride]		not to a statistically significant degree	significant stimulation	
Cc1ccc(S(=O)(=O)NC(=O)NC2CCCCCC2)cc1 [compound 9f, N-(Cycloheptylcarbamoyl)-4-methylbenzenesulfonamide]		not to a statistically significant degree	significant stimulation	
NC1CCCCCC1 [compound 2a, Cycloheptanamine Hydrochloride]		significantly stimulated		duration of significant reduction in blood glucose levels ([1]; 1.0 μM/kg): at least 8 hours; time to significant reduction in blood glucose levels ([1]; 1.0 μM/kg): ≤ 1 h; reduction in blood glucose levels compared to control diabetic rats ([1]; oral dose of 1.0 μM/kg, followed over 8.0 hours, Hydrochloride): significant reduction; also recorded: reductions in blood glucose levels; insulin secretion compared to the basal control (βTC6 cells; concentrations of 10^−15 and 10^−12 M): significantly stimulated; insulin secretion compared to basal insulin secretion (βTC6 cells; Hydrochloride): stimulated insulin secretions significantly; stimulation of insulin production (βTC6 cells; summary statement, glucose condition not given): stimulation of insulin production
N=C(N)NC1CCCCCC1 (as salt: hydrochloride) [compound 10, 1-Cycloheptylguanidine hydrochloride]	106			

The next lines start with results.

melting point [°C]	SMILES	insulin secretion compared to the basal control (βTC6 cells; [2])	insulin secretion compared to basal insulin secretion (βTC6 cells)	other results
102	c1cc(-c2cc[n+](C3CCCCCC3)cc2)ccn1 (as salt: chloride) [compound 6, 1-cycloheptyl-[4,4′-bipyridin]-1-ium chloride]			
232	O=C(NC1CCCCCC1)C(=O)NC1CCCCCC1 [compound 8, N1,N2-dicycloheptyloxalamide]			
169 to 170	O=C(Nc1cc(C(F)(F)F)cc(C(F)(F)F)c1)NC1CCCCCC1 [9a, 1-[3′,5′-Bis(trifluoromethyl)phenyl]-3-cycloheptylurea]			
283	Cl.N=C(N)/N=C(\N)NC1CCCCCC1 [compound 11, (E)-Amino[(amino(cycloheptylamino)methylene)amino]methaniminium chloride]	not to a statistically significant degree	significant stimulation	
235 to 236	Nc1ccc(S(=O)(=O)NC(=O)NC2CCCCCC2)cc1 [compound 9d, 4-Amino-N-(cycloheptylcarbamoyl)benzenesulfonamide]	not to a statistically significant degree	significant stimulation	
139 to 141	Nc1nccc(NC(=O)NC2CCCCCC2)n1 [compound 9c, 1-(2′-Aminopyrimidin-4′-yl)-3-cycloheptylurea]	not to a statistically significant degree	significant stimulation	

Reference: US11891348B2, “Cycloheptylamine derivatives as anti-diabetic agents” (UNITED ARAB EMIRATES UNIVERSITY, priority 2020, dated 2024)
